# Measured values published in patent US10758536B2, “Method for treating shingles with N-methanocarbathymidine (N-MCT)” (priority 2015, dated 2020).
# Experiments:
# [1] = system: VZV; assay: SCID-Hu mouse model of VZV replication, oral dose range; type: in vivo, varicella-zoster virus; conditions: all doses, N-MCT 5-100 mg/kg/day BID; p<0.0001, ANOVA and Dunnett
# Description: SCID-hu mice with human skin xenografts were infected intradermally with VZV and treated orally twice daily with vehicle, PFA (positive control), or N-MCT at 5, 10, 20, 25, 50, or 100 mg/kg/day. Virus spread was measured daily by in vivo bioluminescence imaging (IVIS). […] The results were analyzed for statistical significance by ANOVA and Dunnett's post hoc test of multiple comparisons (GraphPad Prism).
# [2] = system: VZV; assay: Skin organ culture topical Assay 2: delayed treatment; type: cell-based, varicella-zoster virus
# Description: (§1) Place 36 mL deionized sterile water into small beaker with stir bar. Slowly waft 900 mg of carbopol (980 NF, Lot # CCONLCC013, Lubrizol Corp) into water, avoiding clumps. Add equal volume N-MCT in 20% hydroxypropyl-β-cyclodextrin (Sigma) at 2× to reach the desired concentration. Add 2 drops NaOH (18% solution) to attain a pH near 5.0. Store at 4° C. The 0.5% cidofovir gel was made in a similar manner except that cidofovir was dissolved in water. The DMSO vehicle was prepared by adding a 2% DMSO solution in water to the carbopol suspension at a 1:1 ratio. Hydroxypropyl-β-cyclodextrin (HPBCD) was prepared by mixing 5.0 g with 20 mL sterile water. Stock solution of N-MCT was prepared by dissolving 90 mg N-MCT in 9 mL 20% HPBCD and sonicating for 1 min.
# (§2) Human fetal skin was purchased from ABR and delivered by overnight courier on wet ice. The tissue was cleaned, disinfected in betadine and 70% ethanol, then cut into pieces approximately 1-cm^2. Each piece was inoculated with VZV-BAC-Luc strain that expresses firefly luciferase. Approximately 3 hours after inoculation, the pieces of skin were placed in NetWells above tissue culture medium and incubated overnight. The next day (Day 1) each piece of skin was soaked in D-luciferin for 45 min, and then scanned in the IVIS-50 instrument to measure Total Flux, which is a correlate of VZV pfu. The drug treatment began on Day 1 or later by spreading an aqueous gel (carbopol) containing N-MCT at concentrations of 0.05, 0.5, or 5% (see Assay 1 in Table 4 below). One group of skin was treated with cidofovir ([…] in carbopol gel) for a positive control. Each group contained 4-6 pieces of skin. The drug was applied daily until Day 5 (or other intervals), and then the skin pieces were scanned by IVIS to determine virus yield. […] The results were analyzed for statistical significance by ANOVA and Dunnett's post hoc test of multiple comparisons (GraphPad Prism).
# This assay differs from Assay 1 in that the Vehicle was prepared with 10% HPBCD, which is the solvent for the N-MCT. Refer to Assay #2 in Table 4 above. Three groups were treated on Days 1-4 and scanned on Day 5, which is the typical assay protocol. Two groups were treated after a delay of several days, which more closely reflects a clinical scenario of zoster. All treated groups received the same preparation of 0.5% N-MCT in carbopol with 10% HPBCD. VZV yield was reduced in the Vehicle group during the treatment phase, and then rebounded. This was likely due to the effects of HPBCD, which has known antiviral properties. […] In contrast, VZV yield increased until Day 5 in the group that received no treatment until after this scan. The difference between this group and the Vehicle group was notable, since they were expected to be similar.
# [3] = system: VZV; assay: Skin organ culture topical Assay 1: dose dependence (carbopol gel); type: cell-based, varicella-zoster virus
# Description: as §1
# A skin organ culture model was used to evaluate N-MCT as a topical treatment for VZV. Human skin explants were inoculated with VZV by scarification and treated daily from 1-4 days post infection with N-MCT (0.05, 0.5, or 5%) or cidofovir (0.5%, positive control) in a carbopol gel.
# as §2
compound,measurement,setting,value
"O=C(O)P(=O)(O)O [PFA, phosphonoformic acid, reference compound]",VZV yield and growth rates compared to vehicle,[1],significantly reduced
"Nc1ccn(C[C@@H](CO)OCP(=O)(O)O)c(=O)n1 [cidofovir, reference compound]","VZV yield, treatment on Days 1-4","[2]; 0.5% in carbopol QD 1-4 dpi, during and after treatment",dramatically reduced
same,VZV yield compared to vehicle,"[3]; N-MCT 0.05, 0.5, 5% or cidofovir in carbopol gel, daily, p<0.0004",significantly reduced
same,"VZV replication in skin explants, topical gel","[3]; N-MCT 0.05-5%, cidofovir 0.5% in carbopol gel",prevented VZV replication
same,reduction of virus yield compared to the vehicle group,"[3]; all concentrations, topical carbopol gel, p=0.0004",approximately 100 fold
CC(O)COC[C@H]1O[C@@H]2O[C@H]3[C@H](O)[C@@H](O)[C@@H](O[C@H]4[C@H](O)[C@@H](O)[C@@H](O[C@H]5[C@H](O)[C@@H](O)[C@@H](O[C@H]6[C@H](O)[C@@H](O)[C@@H](O[C@H]7[C@H](O)[C@@H](O)[C@@H](O[C@H]8[C@H](O)[C@@H](O)[C@@H](O[C@H]1[C@H](O)[C@H]2O)O[C@@H]8COCC(C)O)O[C@@H]7COCC(C)O)O[C@@H]6COCC(C)O)O[C@@H]5COCC(C)O)O[C@@H]4COCC(C)O)O[C@@H]3COCC(C)O (stereo partly drawn) [hydroxypropyl-β-cyclodextrin],antiviral effect on VZV in skin organ culture,"[2]; 10% in carbopol, no drug",moderate antiviral effect
